Experimental data as given in US7396837B2, “Antitumoral analogs of lamellarins” (Pharma Mar, S.A.U., priority 2002, dated 2008).
Where two headings read alike, the source gives them in different places.

How the values were obtained:
Format in all cases: cell-based
K-562 = test: SRB colorimetric cell growth inhibition assay, K-562; settings: Homo sapiens; for GI50: GI=growth inhibition, read-out: GI50 K-562; for CC50: LC=cell killing (cytotoxic effect); for IC (TGI): TGI=total growth inhibition (cytostatic effect), read-out: TGI K-562
Procedure, shortened: (§1)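 Human tumour cells continuously exposed to compound in 96-well culture; growth and viability quantified colorimetrically by sulforhodamine B staining. Mean ± SD from triplicate wells; GI (growth inhibition), TGI (total growth inhibition, cytostatic) and LC (cell killing, cytotoxic) parameters derived.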

IGROV-ET = test: SRB colorimetric cell growth inhibition assay, IGROV-ET (ET-743 resistant); settings: Homo sapiens; for GI50: GI=growth inhibition, read-out: GI50 IGROV-ET; for CC50: LC=cell killing (cytotoxic effect); for IC (TGI): TGI=total growth inhibition (cytostatic effect), read-out: TGI IGROV-ET
Procedure, shortened: as §1

HeLa-APL = test: SRB colorimetric cell growth inhibition assay, HeLa-APL (aplidine resistant); settings: Homo sapiens; for GI50: read-out: GI50 HELA-APL; for CC50: LC=cell killing (cytotoxic effect); for IC (TGI): read-out: TGI HELA-APL
Procedure, shortened: as §1

SK-MEL-28 = test: SRB colorimetric cell growth inhibition assay, SK-MEL-28; settings: Homo sapiens; for GI50: GI=growth inhibition, read-out: GI50 MEL-28; for CC50: LC=cell killing (cytotoxic effect); for IC (TGI): TGI=total growth inhibition (cytostatic effect), read-out: TGI MEL-28
Procedure, shortened: as §1

IGROV = test: SRB colorimetric cell growth inhibition assay, IGROV; settings: Homo sapiens, IGROV; for GI50: GI=growth inhibition, read-out: GI50 IGROV; for CC50: LC=cell killing (cytotoxic effect); for IC (TGI): TGI=total growth inhibition (cytostatic effect), read-out: TGI IGROV
Procedure, shortened: as §1

DU-145 = test: SRB colorimetric cell growth inhibition assay, DU-145; settings: Homo sapiens; for GI50: GI=growth inhibition, read-out: GI50 DU-145; for CC50: LC=cell killing (cytotoxic effect); for IC (TGI): TGI=total growth inhibition (cytostatic effect), read-out: TGI DU-145
Procedure, shortened: as §1

SK-BR-3 = test: SRB colorimetric cell growth inhibition assay, SK-BR-3; settings: Homo sapiens; for GI50: GI=growth inhibition, read-out: GI50 SK-BR-3; for CC50: LC=cell killing (cytotoxic effect); for IC (TGI): TGI=total growth inhibition (cytostatic effect), read-out: TGI SK-BR-3
Procedure, shortened: as §1

A-549 = test: SRB colorimetric cell growth inhibition assay, A-549; settings: Homo sapiens; for GI50: GI=growth inhibition, read-out: GI50 A-549; for CC50: LC=cell killing (cytotoxic effect); for IC (TGI): TGI=total growth inhibition (cytostatic effect), read-out: TGI A-549
Procedure, shortened: as §1

PANC-1 = test: SRB colorimetric cell growth inhibition assay, PANC-1; settings: Homo sapiens; for GI50: GI=growth inhibition, read-out: GI50 PANC-1; for CC50: LC=cell killing (cytotoxic effect); for IC (TGI): TGI=total growth inhibition (cytostatic effect), read-out: TGI PANC-1
Procedure, shortened: as §1

LNCaP = test: SRB colorimetric cell growth inhibition assay, LNCaP; settings: Homo sapiens, LNCaP; for GI50: GI=growth inhibition, read-out: GI50 LN-caP; for CC50: LC=cell killing (cytotoxic effect); for IC (TGI): TGI=total growth inhibition (cytostatic effect), read-out: TGI LN-caP
Procedure, shortened: as §1

HeLa = test: SRB colorimetric cell growth inhibition assay, HeLa; settings: Homo sapiens, HeLa; for GI50: GI=growth inhibition, read-out: GI50 HELA; for CC50: LC=cell killing (cytotoxic effect); for IC (TGI): read-out: TGI HELA
Procedure, shortened: as §1

LoVo-Dox = test: SRB colorimetric cell growth inhibition assay, LoVo-Dox (MDR)
Procedure, shortened: as §1

HT-29 = test: SRB colorimetric cell growth inhibition assay, HT-29; settings: Homo sapiens; for GI50: GI=growth inhibition, read-out: GI50 HT-29; for CC50: LC=cell killing (cytotoxic effect); for IC (TGI): TGI=total growth inhibition (cytostatic effect), read-out: TGI HT-29
Procedure, shortened: as §1

LoVo = test: SRB colorimetric cell growth inhibition assay, LoVo; settings: Homo sapiens, LoVo; for GI50: GI=growth inhibition, read-out: GI50 LOVO; for CC50: LC=cell killing (cytotoxic effect); for IC (TGI): TGI=total growth inhibition (cytostatic effect), read-out: TGI LOVO
Procedure, shortened: as §1

[1] = Homo sapiens, LOVO-DOX; GI=growth inhibition; read-out: GI50 LOVO-DOX
[2] = Homo sapiens, LOVO-DOX; TGI=total growth inhibition (cytostatic effect); read-out: TGI LOVO-DOX
[3] = K562, read-out: LC50 K-562, K-562
[4] = read-out: LC50 IGROV-ET, IGROV-ET
[5] = read-out: LC50 HELA-APL, HELA-APL
[6] = SK-MEL-28, read-out: LC50 MEL-28, MEL-28
[7] = DU-145, read-out: LC50 DU-145, DU-145
[8] = SK-BR-3, read-out: LC50 SK-BR-3, SK-BR-3
[9] = A549, read-out: LC50 A-549, A-549
[10] = PANC-1, read-out: LC50 PANC-1, PANC-1
[11] = Homo sapiens, read-out: LC50 LOVO-DOX, LOVO-DOX; LC=cell killing (cytotoxic effect)
[12] = HT-29, read-out: LC50 HT-29, HT-29

## COc1cc(-c2c3n(c4c(=O)oc5cc(N)c(OC)cc5c24)CCc2cc(OC)c(OC)cc2-3)ccc1N [Compound 57]
K-562; K562, K-562
  GI50: 2.69 µM
  IC (TGI): 19.5 µM
K-562; K562, K-562, read-out: LC50 K-562
  CC50: 19.5 µM
IGROV-ET; IGROV-ET
  GI50: 0.89 µM
  IC (TGI): 6.43 µM
IGROV-ET; IGROV-ET, read-out: LC50 IGROV-ET
  CC50: 19.5 µM
HeLa-APL; HELA-APL, GI=growth inhibition
  GI50: 3.68 µM
HeLa-APL; HELA-APL, read-out: LC50 HELA-APL
  CC50: 19.5 µM
HeLa-APL; HELA-APL, TGI=total growth inhibition (cytostatic effect)
  IC (TGI): 11 µM
SK-MEL-28; SK-MEL-28, MEL-28
  GI50: 1.68 µM
  IC (TGI): 12.6 µM
SK-MEL-28; SK-MEL-28, MEL-28, read-out: LC50 MEL-28
  CC50: 19.5 µM
IGROV
  GI50: 0.847 µM
  IC (TGI): 5.88 µM
IGROV; read-out: LC50 IGROV
  CC50: 19.5 µM
DU-145; DU-145, DU-145
  GI50: 3.89 µM
  IC (TGI): 12.2 µM
DU-145; DU-145, DU-145, read-out: LC50 DU-145
  CC50: 19.5 µM
SK-BR-3; SK-BR-3, SK-BR-3
  GI50: 0.317 µM
  IC (TGI): 5.24 µM
SK-BR-3; SK-BR-3, SK-BR-3, read-out: LC50 SK-BR-3
  CC50: 19.5 µM
A-549; A549, A-549
  GI50: 1.29 µM
  IC (TGI): 19.5 µM
A-549; A549, A-549, read-out: LC50 A-549
  CC50: 19.5 µM
PANC-1; PANC-1, PANC-1
  GI50: 0.611 µM
  IC (TGI): 9.7 µM
PANC-1; PANC-1, PANC-1, read-out: LC50 PANC-1
  CC50: 19.5 µM
LNCaP; LN-caP
  GI50: 2.16 µM
  IC (TGI): 5.47 µM
LNCaP; LN-caP, read-out: LC50 LN-caP
  CC50: 13.9 µM
HeLa
  GI50: 0.685 µM
HeLa; read-out: LC50 HELA
  CC50: 19.5 µM
HeLa; TGI=total growth inhibition (cytostatic effect)
  IC (TGI): 5.67 µM
LoVo-Dox; [1]
  GI50: 0.828 µM
LoVo-Dox; Homo sapiens, LOVO-DOX; LC=cell killing (cytotoxic effect); read-out: LC50 LOVO-DOX
  CC50: 19.5 µM
LoVo-Dox; [2]
  IC (TGI): 6.91 µM
HT-29; HT-29, HT-29
  GI50: 3.49 µM
  IC (TGI): 19.5 µM
HT-29; HT-29, HT-29, read-out: LC50 HT-29
  CC50: 19.5 µM
LoVo
  GI50: 0.717 µM
  IC (TGI): 5.3 µM
LoVo; read-out: LC50 LOVO
  CC50: 19.5 µM

## COc1cc(-c2c3n(c4c(=O)oc5cc(OC(=O)[C@@H](N)CO)c(OC)cc5c24)CCc2c-3cc(OC)c(OC)c2OC(=O)[C@@H](N)CO)ccc1OC(=O)[C@@H](N)CO [Compound 59]
K-562; K562, K-562
  GI50: 1.64 µM
  IC (TGI): 3.45 µM
K-562; [3]
  CC50: 7.27 µM
IGROV-ET; IGROV-ET
  GI50: 0.632 µM
  IC (TGI): 2.04 µM
IGROV-ET; [4]
  CC50: 5.98 µM
HeLa-APL
  GI50: 1.88 µM
  IC (TGI): 3.9 µM
HeLa-APL; [5]
  CC50: 8.12 µM
SK-MEL-28; SK-MEL-28, MEL-28
  GI50: 1.62 µM
  IC (TGI): 3.04 µM
SK-MEL-28; [6]
  CC50: 5.67 µM
IGROV; read-out: LC50 IGROV, IGROV
  CC50: 7.67 µM
IGROV
  GI50: 0.899 µM
  IC (TGI): 2.63 µM
DU-145; DU-145, DU-145
  GI50: 1.39 µM
  IC (TGI): 2.6 µM
DU-145; [7]
  CC50: 4.86 µM
SK-BR-3; SK-BR-3, SK-BR-3
  GI50: 0.372 µM
  IC (TGI): 1.15 µM
SK-BR-3; [8]
  CC50: 4.11 µM
A-549; A549, A-549
  GI50: 1.7 µM
  IC (TGI): 3.29 µM
A-549; [9]
  CC50: 6.36 µM
PANC-1; PANC-1, PANC-1
  GI50: 1.1 µM
  IC (TGI): 3.48 µM
PANC-1; [10]
  CC50: 8.81 µM
LNCaP; LN-caP
  GI50: 1.37 µM
  IC (TGI): 2.63 µM
LNCaP; read-out: LC50 LN-caP, LN-caP
  CC50: 5.06 µM
HeLa; read-out: LC50 HELA, HELA
  CC50: 6.44 µM
HeLa
  IC (TGI): 2.98 µM
  GI50: 1.37 µM
LoVo-Dox; [1]
  GI50: 0.528 µM
LoVo-Dox; [2]
  IC (TGI): 1.6 µM
LoVo-Dox; [11]
  CC50: 4.56 µM
HT-29; HT-29, HT-29
  GI50: 1.97 µM
  IC (TGI): 3.7 µM
HT-29; [12]
  CC50: 6.98 µM
LoVo; read-out: LC50 LOVO, LOVO
  CC50: 5.67 µM
LoVo
  GI50: 1.13 µM
  IC (TGI): 2.53 µM

## COc1cc(-c2c3n(c4c(=O)oc5cc(OC(=O)[C@H](CO)NC(=O)OC(C)(C)C)c(OC)cc5c24)CCc2c-3cc(OC)c(OC)c2OC(=O)[C@H](CO)NC(=O)OC(C)(C)C)ccc1OC(=O)[C@H](CO)NC(=O)OC(C)(C)C [Compound 60]
K-562; K562, K-562
  GI50: 0.697 µM
  IC (TGI): 2.19 µM
K-562; [3]
  CC50: 6.87 µM
IGROV-ET; IGROV-ET
  GI50: 2.56 µM
  IC (TGI): 6.16 µM
IGROV-ET; [4]
  CC50: 9.15 µM
HeLa-APL
  GI50: 3.49 µM
  IC (TGI): 9.15 µM
HeLa-APL; [5]
  CC50: 9.15 µM
SK-MEL-28; SK-MEL-28, MEL-28
  GI50: 1.17 µM
  IC (TGI): 4.14 µM
SK-MEL-28; [6]
  CC50: 9.15 µM
IGROV; read-out: LC50 IGROV, IGROV
  CC50: 9.15 µM
IGROV
  GI50: 0.682 µM
  IC (TGI): 3.29 µM
DU-145; DU-145, DU-145
  GI50: 1.18 µM
  IC (TGI): 2.65 µM
DU-145; [7]
  CC50: 5.97 µM
SK-BR-3; SK-BR-3, SK-BR-3
  GI50: 0.491 µM
  IC (TGI): 1.64 µM
SK-BR-3; [8]
  CC50: 8.58 µM
A-549; A549, A-549
  GI50: 1.62 µM
  IC (TGI): 4.63 µM
A-549; [9]
  CC50: 9.15 µM
PANC-1; PANC-1, PANC-1
  GI50: 0.747 µM
  IC (TGI): 4.4 µM
PANC-1; [10]
  CC50: 9.15 µM
LNCaP; LN-caP
  GI50: 0.55 µM
  IC (TGI): 1.79 µM
LNCaP; read-out: LC50 LN-caP, LN-caP
  CC50: 5.25 µM
HeLa; read-out: LC50 HELA, HELA
  CC50: 6.13 µM
HeLa
  IC (TGI): 2.51 µM
  GI50: 1.02 µM
LoVo-Dox; [1]
  GI50: 2.82 µM
LoVo-Dox; [11]
  CC50: 9.15 µM
LoVo-Dox; Homo sapiens; LOVO-DOX; TGI=total growth inhibition (cytostatic effect); read-out: TGI LOVO-DOX
  IC (TGI): 9.15 µM
HT-29; HT-29, HT-29
  GI50: 2.42 µM
  IC (TGI): 5.88 µM
HT-29; [12]
  CC50: 9.15 µM
LoVo; read-out: LC50 LOVO, LOVO
  CC50: 7.94 µM
LoVo
  GI50: 1.61 µM
  IC (TGI): 3.58 µM
